Measured values taken from PubChem BioAssay (NCI).
Where “and” joins values, the source holds several entries; their conditions need not be identical. Equal values may be shown once.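 Dose response: 5 concentrations. Exposure: 48 h. Format: 96-well plates. Endpoint: linear interpolation; highest concentration if not reached. The concentration for 50% growth inhibition is given as GI50. TGI is the concentration that stops growth completely.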

Tests used:
Assay in all cases: NCI-60 cell line screen, 48 h
[1] = tested on: OVCAR-8 ovarian
[2] = tested on: MOLT-4 leukemia
[3] = tested on: KM20L2 colon
[4] = tested on: MCF7 breast
[5] = tested on: HOP-92 NSCLC
[6] = tested on: HOP-62 NSCLC
[7] = tested on: NCI-H23 lung
[8] = tested on: UO-31 renal
[9] = tested on: SF-539 CNS
[10] = tested on: SK-MEL-28 melanoma
[11] = tested on: COLO 205 colon
[12] = tested on: EKVX NSCLC
[13] = tested on: DLD-1 colon
[14] = tested on: UACC-62 melanoma
[15] = tested on: IGROV1 ovarian
[16] = tested on: TK-10 renal
[17] = tested on: RXF-631 renal
[18] = tested on: KM12 colon
[19] = tested on: HCC-2998 colon
[20] = tested on: XF 498 CNS
[21] = tested on: NCI-H460 lung
[22] = tested on: DU-145 prostate
[23] = tested on: A549 NSCLC
[24] = tested on: K-562 leukemia
[25] = tested on: A498 renal
[26] = tested on: M14 melanoma
[27] = tested on: M19-MEL melanoma
[28] = tested on: LOX IMVI melanoma
[29] = tested on: HT29 colon
[30] = tested on: ACHN renal
[31] = tested on: 786-0 renal
[32] = tested on: HL-60(TB) leukemia
[33] = tested on: MDA-MB-231 breast
[34] = tested on: MALME-3M melanoma
[35] = tested on: RXF 393 renal
[36] = tested on: OVCAR-3 ovarian
[37] = tested on: SK-MEL-5 melanoma
[38] = tested on: DMS 273 small cell lung
[39] = tested on: CAKI-1 renal
[40] = tested on: NCI-H522 lung
[41] = tested on: SNB-19 CNS
[42] = tested on: HOP-18 NSCLC
[43] = tested on: SF-268 CNS
[44] = tested on: DMS 114 small cell lung
[45] = tested on: SNB-75 CNS
[46] = tested on: MDA-MB-435
[47] = tested on: NCI-H226 lung

Compound: COc1ccc(/C=C\c2cc(OC)c(OC)c(OC)c2)cc1OC(=O)NCCN(C)C
- TGI [1]: 638 nM
- TGI [2]: < 49.4 nM
- TGI [3]: 1170 nM
- TGI [4]: > 100000 nM
- TGI [5]: 0.65 nM and < 39.3 nM
- TGI [6]: > 100000 nM
- TGI [7]: 4.31 nM
- TGI [8]: > 63200 nM
- TGI [9]: 3.28 nM
- GI50 [10]: < 0.1 nM
- TGI [10]: 43100 nM
- GI50 [11]: 187 nM
- TGI [11]: 4690 nM
- TGI [12]: > 58700 nM
- TGI [13]: 15900 nM
- TGI [14]: > 25700 nM
- GI50 [15]: 1.39 nM
- TGI [15]: > 100000 nM
- GI50 [16]: > 47000 nM
- TGI [16]: > 100000 nM
- GI50 [17]: 258 nM
- GI50 [18]: < 0.1 nM
- GI50 [19]: < 46.9 nM
- TGI [19]: 487 nM
- TGI [20]: < 0.1 nM
- TGI [21]: 4.85 nM
- TGI [22]: 43 nM
- GI50 [23]: < 28 nM
- TGI [23]: > 41300 nM
- TGI [24]: 23700 nM
- TGI [25]: 30.3 nM
- TGI [26]: > 35000 nM
- TGI [27]: 20100 nM
- TGI [28]: > 100000 nM
- GI50 [29]: 348 nM
- TGI [29]: 19900 nM
- TGI [30]: > 41700 nM
- TGI [31]: > 34800 nM
- TGI [32]: 3.38 nM
- TGI [33]: 23 nM
- TGI [34]: 98300 nM
- TGI [35]: < 0.1 nM
- TGI [36]: 3.47 nM
- TGI [37]: 47.4 nM
- TGI [38]: 0.109 nM
- TGI [39]: > 100000 nM
- TGI [40]: 0.483 nM
- TGI [41]: > 100000 nM
- TGI [42]: > 100000 nM
- GI50 [43]: 33.6 nM
- TGI [44]: < 0.1 nM
- TGI [45]: 32800 nM
- TGI [46]: < 0.1 nM
- TGI [47]: 46.4 nM
